Laboratory results from patent USRE42394E1, “Fungicidal compositions for the enhancement of turf quality” (Bayer CropScience Inc., priority 1995, dated 2011).

Tested on: bentgrass cultivar “Penncross”
Experiment: Turf quality and color ratings on fungicide-treated bentgrass field plots (decline from crown and root rot)
Type: in vivo
Settings: summary statements of the text on the field tests
Protocol: Fungicides were evaluated on a one-year-old stand of the bentgrass cultivar “Penncross” planted in Raleigh, N.C., U.S.A. The bentgrass was planted in native soil and maintained under conditions similar to a golf green with a mowing height of 0.635 cm (.25 inches).
The fungicides were applied separately and in combination at labelled rates to 1.5 m×1.5 m (5 ft×5 ft) plots of bentgrass prior to evidence of any decline in turf quality due to crown and root rot. A CO2 backpack sprayer was used to apply the fungicide treatments at (30 lbs psi) using TEEJET™ 8004 nozzles to apply 9.5 liters (2.5 gallons) of fungicide dilutions per 93 square meters (1000 sq ft). The fungicides were initially applied and subsequently reapplied according to a 14 day schedule. In some experiments, an electrical pump sprayer was used to apply the treatments at 30 psi using a Teejet 8004 nozzle.
Turf quality, color and percent disease ratings were recorded weekly, based on a scale from 1-9, with 9 being ideal turf quality and color and 1 being all turf dead. The percent disease ratings were calculated based on the percent of area in each plot showing symptoms of brown patch. Turf quality and color ratings were used as an indicator of the health of the bentgrass and the amount of decline associated with crown and root rot.

[Cu+2].c1ccc2c(c1)-c1nc-2nc2[n-]c(nc3nc(nc4[n-]c(n1)c1ccccc41)-c1ccccc1-3)c1ccccc21 [Pigment Blue 15]
turf quality and color, comparison in words: enhances the activity of the ALIETTE™ and mancozeb in a synergistic interaction
